# According to PMC5418711, “Safety and efficacy of the choline analogue SAR97276 for malaria treatment: results of two phase 2, open-label, multicenter trials in African patients” (Malaria Journal, 2017):
# Several values for one entry are separate records, joined by “and”; a condition that tells them apart may be missing. Equal entries are not always repeated. Where two headings read alike, the source gives them in different places.
# Legend:
# [1] = ref unpublished data owned by Sanofi, cited from earlier work
# [2] = Population pharmacokinetics in plasma, Study 1 and Study 2; type: in vivo, human; settings: for AUC(0-t) / Cmax / Vd / clearance: human, plasma; for AUC(0-t) / Cmax: mean and SD; for AUC(0-t): read-out: AUC or AUC0-24,ss; for Cmax: read-out: Cmax or Cmax,ss; for Vd: read-out: Median central volume of distribution V2; for clearance: read-out: Median clearance (converted)
# Description: Rescue therapy was initiated in case of clinical aggravation of recrudescent parasites in both studies, the exact description for each study can be seen in the supplement (Additional file 3). Pharmacokinetic analysis: Plasma samples were assayed using a validated liquid chromatography-mass spectrometry method with a limit of quantification of 1 ng/ml for SAR97276. The pharmacokinetic analysis was performed using a population pharmacokinetic modeling approach.
# The pharmacokinetics of SAR97276 were best described by a three-compartment model, with a first order absorption (ka), with interindividual variability on clearances and central volume of distribution.
# [3] = Study 2: safety assessment (TEAEs, ECG, respiratory parameters); type: in vivo, human; settings: for QTc interval - change from baseline Borderline: Incr. from B 30-60 ms / QTc interval - change from baseline Prolonged: Incr. from B > 60 ms / QTc interval Borderline: 431-450 ms (Boys); 451-470 ms (Girls) / QTc interval Prolonged: > 450 ms (Boys); > 470 ms (Girls) / QTc interval ≥ 500 ms: TEAE period
# Description: Study duration and follow-up In both studies, study duration was 28 days for each patient including a screening period of up to 12 h before inclusion into the study. Participants were hospitalized for at least 3 days (72 h) after the start of treatment. Follow-up visits were done on day 6, 8, 14 ± 2, 21 ± 2, 28 ± 2 (Study 1); and day 7, 14 ± 2, 21 ± 2, 28 ± 2 (Study 2). Patient examination Fever measurements and thick blood smears were done every 6 h until 72 h and at each follow-up visit. Parasitemia was determined microscopically by Giemsa stained thick blood smear by two trained microscopists blinded to each other. Safety assessment Safety analysis was based on AEs including vision assessment recorded from baseline until day 28 (in binocular conditions, for near and distant visual acuity, using standard optotypes appropriate for patient’s age and reading ability. Tests with standard corrective glasses (+3 and −3 diopters) were performed in case of visual adverse events, to assess whether vision improved or worsened with corrective glasses). Laboratory tests including hematology, biochemistry and urine analysis were done at baseline, day 2, 4, 28 (Study 1), or baseline, day 2, 4, 14, 28 (Study 2); vital signs were recorded at baseline, every 6 h until 72 h and on each follow up visit. An electrocardiogram (ECG) was done at baseline, day 4, 28 (Study 1), or baseline, 48 h, 72 h, day 28 (Study 2). For Study 2 respiratory parameters (respiratory rate, peak flow, efficiency of cough) were also checked at baseline and 30 min after first dose on day 1, 2 and 3.
# Treatment emergent adverse events (TEAEs) were defined as AEs that developed or worsened during the treatment period until day 6 following the end of study treatment.
# [4] = after single IM administration of 36 mg, phase 1
# [5] = im, 0.18 mg/kg, Group 1D: 3 days IM 0.18 mg/kg, children, n=14
# [6] = im, 0.18 mg/kg, Study 1 Adults IM (1A + 1B) 0.18 mg/kg, n=64
# [7] = im, 0.5 mg/kg, Group 2A: 3 days IM once daily 0.5 mg/kg, teenagers, n=8
# [8] = intramuscular, 0.18 mg/kg, children
# [9] = iv, 0.14 mg/kg, Group 1C: 1 day IV 0.14 mg/kg, adults, n=30
# [10] = Group 2A: 3 days IM once daily 0.5 mg/kg, teenagers, N=8
# [11] = Group 2A: 3 days IM once daily 0.5 mg/kg, teenagers, N=8, baseline 205
# [12] = Group 2A: 3 days IM once daily 0.5 mg/kg, teenagers
# [13] = Group 2B: 3 days IM twice daily 0.25 mg/kg, teenagers, N=8
# [14] = Group 2B: 3 days IM twice daily 0.25 mg/kg, teenagers, N=8, baseline 185
# [15] = Group 2B: 3 days IM twice daily 0.25 mg/kg, teenagers
compound,measurement,setting,value
Cc1c(CCO)sc[n+]1CCCCCCCCCCCC[n+]1csc(CCO)c1C [SAR97276A],Terminal half-life in plasma,[1]; [4],5.5 h
same,Terminal half-life in whole blood,[1]; [4],73 h
same,"Participants with an AE of severe intensity (ophthalmologic problems, temporary decrease in visual acuity), considered drug related","[1]; multiple administrations of 18 mg twice daily IM, phase 1",one
same,Participants with AEs of severe intensity (severe abdominal spasm),"[1]; multiple doses of 12.8 mg IV, phase 1",two
same,Highest tolerated dose for twice daily IM administration for 3 days,[1]; phase 1,18 mg
same,Tolerability in three phase 1 clinical trials,"[1]; single doses 0.2–12.8 mg IV, 3.2–36 mg IM",well tolerated
same,AUC(0-t),[2]; [5],479 ± 111 ng·h/mL
same,Cmax,[2]; [5],332 ± 91 ng/mL
same,AUC(0-t),[2]; [6],674 ± 109 ng·h/mL
same,Cmax,[2]; [6],355 ± 51 ng/mL
same,AUC(0-t),"[2]; im, 0.25 mg/kg, Group 2B: 3 days IM twice daily 0.25 mg/kg, teenagers, n=8, AUC0-12 at steady state multiplied by 2",1400 ± 270 ng·h/mL
same,Cmax,"[2]; im, 0.25 mg/kg, Group 2B: 3 days IM twice daily 0.25 mg/kg, teenagers, n=8",477 ± 91 ng/mL
same,AUC(0-t),[2]; [7],1470 ± 375 ng·h/mL
same,Cmax,[2]; [7],862 ± 45 ng/mL
same,Vd,[2]; [8],0.217 L/kg
same,clearance,[2]; [8],6.55 mL/min/kg
same,AUC(0-t),[2]; [9],480 ± 92 ng·h/mL
same,Cmax,[2]; [9],390 ± 55 ng/mL
same,Vd,[2]; adults,0.27 L/kg
same,clearance,[2]; adults,4.58 mL/min/kg
same,Inter-individual variability based on Cmax and AUC,[2]; whatever the populations or the route of administration,< 25%
same,Patients with TEAE leading to treatment discontinuation,[3]; [10],2 (25%)
same,Patients with any TEAE,[3]; [10],8 (100%)
same,Patients with any serious AE,[3]; [10],4 (50%)
same,TEAE: Decreased appetite,[3]; [10],0
same,TEAE: Gastrointestinal disorders,[3]; [10],4 (50%)
same,TEAE: Headache,[3]; [10],0
same,TEAE: Hepatitis B,[3]; [10],1 (13%)
same,TEAE: Jaundice,[3]; [10],1 (13%)
same,TEAE: Lacrimation increased,[3]; [10],1 (13%)
same,TEAE: Malaria,[3]; [10],7 (88%)
same,TEAE: Neutropenia,[3]; [10],0
same,TEAE: Pyrexia,[3]; [10],0
same,TEAE: Vertigo,[3]; [10],1 (12.5%)
same,TEAE: Vision blurred,[3]; [10],1 (13%)
same,"Peakflow, change from baseline on D1 0.30 h",[3]; [11],-15.0 median L/min
same,"Peakflow, change from baseline on D2 24.30 h",[3]; [11],4.0 median L/min
same,"Peakflow, change from baseline on D23 48.30 h",[3]; [11],45.0 median L/min
same,QTc interval - change from baseline Borderline: Incr. from B 30-60 ms,[3]; [12],2/8
same,QTc interval - change from baseline Prolonged: Incr. from B > 60 ms,[3]; [12],0/8
same,QTc interval Borderline: 431-450 ms (Boys); 451-470 ms (Girls),[3]; [12],3/8
same,QTc interval Prolonged: > 450 ms (Boys); > 470 ms (Girls),[3]; [12],0/8
same,QTc interval ≥ 500 ms,[3]; [12],0/8
same,Patients with TEAE leading to treatment discontinuation,[3]; [13],2 (25%)
same,Patients with any TEAE,[3]; [13],5 (63%)
same,Patients with any serious AE,[3]; [13],2 (25%)
same,TEAE: Decreased appetite,[3]; [13],1 (13%)
same,TEAE: Gastrointestinal disorders,[3]; [13],1 (13%)
same,TEAE: Headache,[3]; [13],0
same,TEAE: Jaundice,[3]; [13],0
same,TEAE: Lacrimation increased,[3]; [13],0
same,TEAE: Malaria,[3]; [13],4 (50%)
same,TEAE: Neutropenia,[3]; [13],2 (25%)
same,TEAE: Pyrexia,[3]; [13],0
same,TEAE: Vertigo,[3]; [13],0
same,TEAE: Vision blurred,[3]; [13],0
same,"Peakflow, change from baseline on D1 0.30 h",[3]; [14],2.5 median L/min
same,"Peakflow, change from baseline on D2 24.30 h",[3]; [14],5.0 median L/min
same,"Peakflow, change from baseline on D23 48.30 h",[3]; [14],-10.0 median L/min
same,QTc interval - change from baseline Borderline: Incr. from B 30-60 ms,[3]; [15],0/8
same,QTc interval - change from baseline Prolonged: Incr. from B > 60 ms,[3]; [15],0/8
same,QTc interval Borderline: 431-450 ms (Boys); 451-470 ms (Girls),[3]; [15],2/8
same,QTc interval Prolonged: > 450 ms (Boys); > 470 ms (Girls),[3]; [15],2/8
same,QTc interval ≥ 500 ms,[3]; [15],0/8
same,Overall safety profile,[3]; Study 2,good
same,"Patients with a TEAE who discontinued study treatment and received rescue treatment, total",[3]; Study 2,Four
same,Respiratory parameters: untoward effect,[3]; Study 2,no indication for an untoward effect
same,SAEs: relation to study treatment,[3]; Study 2,not related
same,"Patients who had a SAE, total","[3]; Study 2, all in the SAR97276A treatment groups",6
same,Neutrophil count in the two patients with neutropenia who discontinued treatment,"[3]; Study 2, day 2, returned to normal values at 72 h after treatment start",0.99 giga/L and 0.91 giga/L
same,Patients with a SAE with persistence of uncomplicated malaria,"[3]; Study 2, of six SAE patients",five
